Test results as given in ChEMBL document CHEMBL1201862, “PubChem BioAssay data set” (2004).
Active and inactive are the calls of the source.

Tests used:
[1] = BioA aminotransferase inhibition, coupled fluorescent readout – biochemical, coupled fluorescence displacement, 20-point, dry powder, dose response (AID 743357); format: functional
[2] = molecular target: RNA-editing ligase 1, mitochondrial (Trypanosoma brucei brucei, UniProt P86926); assay: inhibition of trypanosome RNA editing ligase – biochemical, fluorescence, Trypanosoma brucei, dose response (AID 1117295); format: functional
[3] = inhibitors acting on PAX2 in cells – cell-based, plate reader, dry powder samples, selectivity assay for PAX8 inhibitor project, dose response (AID 743048); format: functional;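 also: HEK293 cells carrying a WT1 promoter luciferase reporter driven by expressed Pax2; potency is for inhibition of Pax2 driven reporter signal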
[4] = toxicity toward immortalized ovarian surface epithelium – cell-based, plate reader, dry powder samples, cytotoxicity control for PAX8 inhibitor project, dose response (AID 743045); format: functional
[5] = PAX8-dependent cell viability loss – plate reader, dry powder, dose response (AID 743049); format: functional, cell-based
[6] = alpha-synuclein stem-loop translation blockers – luminescence, H4 neuroglioblastoma cells, dose confirmation, confirmation (AID 2454); format: functional, cell-based;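 also: H4 neuroglioblastoma cells carrying an alpha-synuclein 5'UTR luciferase reporter; potency for inhibition of the luciferase signal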
[7] = molecular target: T1, Nuclear receptor subfamily 0 group B member 1 (Homo sapiens, UniProt P51843); format: functional, cell-based;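 also: HEK293T cells transfected with SF-1 and DAX-1 plus StAR promoter luciferase reporter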
T1 sequence (P51843 whole entry): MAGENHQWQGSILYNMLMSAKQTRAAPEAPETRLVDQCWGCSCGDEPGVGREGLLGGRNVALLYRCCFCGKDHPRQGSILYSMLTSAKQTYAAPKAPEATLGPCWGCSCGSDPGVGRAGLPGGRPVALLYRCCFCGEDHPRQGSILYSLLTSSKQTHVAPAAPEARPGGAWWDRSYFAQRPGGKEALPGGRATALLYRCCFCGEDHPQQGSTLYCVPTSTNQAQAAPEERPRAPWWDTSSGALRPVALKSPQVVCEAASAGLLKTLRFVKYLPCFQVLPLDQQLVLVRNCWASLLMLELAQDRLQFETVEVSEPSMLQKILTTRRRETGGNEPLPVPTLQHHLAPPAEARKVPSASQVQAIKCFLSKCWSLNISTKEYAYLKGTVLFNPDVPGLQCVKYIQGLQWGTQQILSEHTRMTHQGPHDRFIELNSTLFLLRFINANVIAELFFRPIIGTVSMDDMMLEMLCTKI

[8] = PAX5 cellular inhibition readout – cell-based, plate reader, dry powder samples, selectivity assay for PAX8 inhibitor project, dose response (AID 743047); format: functional;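 also: HEK293 cells carrying a Pax5 driven CD19 promoter luciferase reporter; potency of inhibitors that lower reporter luminescence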
[9] = HEK-293T viability loss after treatment – luminescence, T-cell screen hits, cytotoxicity control for TCR NF-kB inhibitor project, dose response (AID 489026); format: functional, cell-based;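 also: cells exposed to compound about 14 hours before the viability readout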
[10] = OVCAR-3 cell viability loss – plate reader, dry powder samples, PAX8 inhibitor project, dose response (AID 743044); format: functional, cell-based
[11] = COV362 cell viability loss – plate reader, dry powder, SA12, cytotoxicity control for PAX8 inhibitor project, dose response (AID 743144); format: functional, cell-based
[12] = IGROV1 cell killing – plate reader, dry powder samples, PAX8 inhibitor project, dose response (AID 743043); format: functional, cell-based; details: IGROV-1
[13] = OV-90 cell viability loss – plate reader, dry powder, SA8, PAX8 inhibitor project, dose response (AID 743149); format: functional, cell-based
cells [14] = format: functional, cell-based
cells [15] = format: functional, cell-based; remark: listed apart in the source
[16] = luciferase reporter signal suppression in cells – H4 neuroglioma cells, luminescence, dose response (AID 1990); format: functional, cell-based
[17] = alpha-synuclein stem-loop luciferase translation blockers – H4 neuroglioma cells, luminescence, confirmation (AID 1988); format: functional, cell-based
[18] = A2780 cell killing – plate reader, dry powder samples, cytotoxicity control, dose response (AID 743046); format: functional, cell-based
[19] = COV434 cell viability loss – plate reader, dry powder, SA7, cytotoxicity control for PAX8 inhibitor project, dose response (AID 743145); format: functional, cell-based
Paired box protein Pax-8 = Paired box protein Pax-8 (Homo sapiens, UniProt Q06710); assay: PAX8 transcriptional activity inhibition in RMG-I – RMG-I cells, luciferase, cherry-pick, dose response (AID 687027); format: functional, cell-based;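 also: luciferase reporter driven by Pax8 target thyroperoxidase promoter measured by SteadyGlo luminescence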
[20] = luciferase reporter signal reduction – luminescence, H4-C neuroglioblastoma cells, dose response (AID 2458); format: functional, cell-based;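 also: H4 neuroglioblastoma cells stably carrying a luciferase reporter gene fusion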
[21] = OVCAR4 cell viability loss – plate reader, dry powder, SA11, cytotoxicity control for PAX8 inhibitor project, dose response (AID 743150); format: functional, cell-based; details: OVCAR-4

Sequence of Paired box protein Pax-8 (Q06710 whole entry, the tested form may be a part): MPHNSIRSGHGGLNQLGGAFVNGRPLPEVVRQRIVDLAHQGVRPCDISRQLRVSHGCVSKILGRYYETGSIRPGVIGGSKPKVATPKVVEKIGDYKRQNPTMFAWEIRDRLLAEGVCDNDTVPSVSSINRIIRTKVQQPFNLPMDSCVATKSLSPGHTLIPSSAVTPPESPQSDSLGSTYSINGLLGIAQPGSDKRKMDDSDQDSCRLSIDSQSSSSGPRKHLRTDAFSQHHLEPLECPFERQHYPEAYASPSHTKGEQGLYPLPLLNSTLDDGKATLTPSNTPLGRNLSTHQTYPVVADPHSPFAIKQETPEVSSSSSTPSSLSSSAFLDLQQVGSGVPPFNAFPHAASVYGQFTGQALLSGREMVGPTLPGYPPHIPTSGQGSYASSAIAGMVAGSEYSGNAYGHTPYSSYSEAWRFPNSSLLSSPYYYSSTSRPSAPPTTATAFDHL
Sequence of RNA-editing ligase 1, mitochondrial (P86926 whole entry): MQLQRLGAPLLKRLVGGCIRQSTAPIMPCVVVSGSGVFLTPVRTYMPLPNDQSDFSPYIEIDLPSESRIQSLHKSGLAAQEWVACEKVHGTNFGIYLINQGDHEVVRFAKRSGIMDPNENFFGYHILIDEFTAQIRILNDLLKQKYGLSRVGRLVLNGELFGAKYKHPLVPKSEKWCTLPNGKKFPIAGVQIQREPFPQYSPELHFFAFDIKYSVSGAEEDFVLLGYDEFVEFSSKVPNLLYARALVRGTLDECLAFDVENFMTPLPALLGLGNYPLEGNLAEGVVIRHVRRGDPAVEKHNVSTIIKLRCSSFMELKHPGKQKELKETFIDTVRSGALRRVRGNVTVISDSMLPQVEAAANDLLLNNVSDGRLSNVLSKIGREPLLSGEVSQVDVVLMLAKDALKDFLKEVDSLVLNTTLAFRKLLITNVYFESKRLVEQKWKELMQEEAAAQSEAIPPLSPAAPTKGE

Compound: O=C(c1ccc2c(c1)OCO2)N1CCN(c2ccc(S(=O)(=O)C(F)F)cc2)CC1
- AC50 [1]: 16.7 µM (active)

Compound: C=CCNC1=NC(c2ccccc2C(F)(F)F)C(C(=O)OC)=C(C)N1Cc1cccc(C(F)(F)F)c1 (configuration not stated)
- IC50 [2]: > 96.6 µM (inactive)

Compound: CN[C@H]1CCc2cc(OC)c(OC)c(OC)c2-c2ccc(OC)c(=O)cc21 [DEMECOLCINE]
- AC50 [3]: 0.217 µM (active)
- AC50 [4]: 0.113 µM (active)
- AC50 [5]: 0.0967 µM (active)
- EC50 [6]: 0.085 µM (active)
- IC50 [7]: > 0.834 µM (active)
- AC50 [8]: > 100 µM (inactive)
- IC50 [9]: > 80 µM (inactive)
- AC50 [10]: 0.318 µM (active)
- AC50 [11]: 0.0966 µM (active)
- AC50 [12]: 6.35 µM (active)
- AC50 [13]: 0.0488 µM (active)
- EC50 (cells [14]): 0.08 µM (active)
- IC50 (cells [15]): > 67.6 µM (inactive)
- EC50 [16]: < 0.1 µM (active)
- EC50 [17]: < 0.1 µM (active)
- AC50 [18]: 0.234 µM (active)
- AC50 [19]: 0.0615 µM (active)
- AC50 (Paired box protein Pax-8): < 0.26 µM (active)
- EC50 [20]: 0.078 µM (active)
- AC50 [21]: 0.113 µM (active)
